*1 amine or outer side, *2 acyl side, *3 side chain or, on linkers, in order; H or OH if unused. Where a SMILES comes first, the peptide text is derived from it. The star is where a group is joined. C20 diacid = O=C(O)CCCCCCCCCCCCCCCCCCC(=O)*; γGlu = O=C(O)[C@H](CCC(=O)[*:2])N[*:1]
Columns and labels:
[1] = background statement; cited from earlier work
[2] = target: T1, human amylin receptors (Homo sapiens, UniProt O60896+P30988); experiment: Luciferase assay of amylin (amylin receptor/CRE-luc cell line); assay type: cell-based; conditions: stably transfected amylin receptor/CRE-luc CHO cells (CHO-K1/Gal5/AMY3), 24 hours incubation, luciferase readout;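 also: agonist potency from luminescence of cAMP response element-driven luciferase, EC50 derived from a standard curve of signal versus compound concentration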
T1 sequence (P30988 25-474): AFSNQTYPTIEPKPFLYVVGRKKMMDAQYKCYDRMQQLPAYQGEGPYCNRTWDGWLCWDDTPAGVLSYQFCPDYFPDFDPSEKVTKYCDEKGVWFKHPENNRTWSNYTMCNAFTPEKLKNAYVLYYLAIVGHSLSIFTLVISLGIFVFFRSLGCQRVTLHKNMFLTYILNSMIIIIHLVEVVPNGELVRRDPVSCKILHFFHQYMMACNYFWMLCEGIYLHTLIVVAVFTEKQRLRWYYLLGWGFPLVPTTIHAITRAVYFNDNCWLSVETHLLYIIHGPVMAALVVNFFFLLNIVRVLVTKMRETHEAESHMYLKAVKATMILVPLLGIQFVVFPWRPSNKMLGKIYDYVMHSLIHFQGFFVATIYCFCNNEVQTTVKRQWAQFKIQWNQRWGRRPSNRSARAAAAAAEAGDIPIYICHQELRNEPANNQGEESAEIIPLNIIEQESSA
T1 sequence (O60896 24-148 partner): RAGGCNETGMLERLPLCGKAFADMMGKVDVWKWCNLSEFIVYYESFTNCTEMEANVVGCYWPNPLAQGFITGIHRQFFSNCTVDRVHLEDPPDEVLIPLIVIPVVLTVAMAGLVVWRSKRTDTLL
Source text: The objective of this assay is to test the activity or potency of calcitonin analogues or derivatives on human amylin receptors in vitro using a luciferase assay.
Using the standard protocol, CHO-K1/Gal5/AMY3 cells (purchased from GenScript, with the calcitonin receptor and the receptor activity modifying peptide (RAMP) constructed already) were transfected with a plasmid containing a luciferase expression cassette driven by multiple copies of cAMP response elements (CREs). The cells were cultured in an F12 medium containing 200 ug/mL Zeocin, 2 ug/mL puromycin, 100 ug/mL hygromycin, and 400 ug/mL G418 to afford a stably transfected amylin receptor/CRE-luc cell line.
To each well of a white 96-well plate was added 50 µL of the tested sample solution at a respective concentration.
The stably transfected amylin receptor/CRE-luc CHO cells were resuspended in the growth medium at a certain density, and 50 µL of the cell suspension was added at a density of about 20000 cells per well to the white 96-well plate containing the tested sample solution. After incubation of 24 hours at 37°C and 5% CO2, 100 µL of a Luciferase substrate was added to each well, incubated for 3 minutes, and finally was tested for luminescence on SpectraMax L (Molecular Devices) with the software SoftMax Pro 7.0.3 GxP. A standard curve was plotted using the fluorescent intensities for calculation of EC50.

[3] = Heat accelerated stability assay under a neutral condition; assay type: physicochemical; conditions: pH about 7.4, 40°C; for Changes in characteristics or properties, 0d / Changes in characteristics or properties, 7d / Characteristics or properties on Day 26: 1 mg/mL, phosphate; for Concentration change on Day 26 as compared to Day 0: Day 26 vs Day 0; for Purity Change% (7d-0d): purity from reversed phase chromatography-214 nm, Day 7 vs Day 0; for Concentration change (7d-0d)/%: Day 7 vs Day 0, reversed phase chromatography
How it was run: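 Peptide (1 mg/mL) with sodium dihydrogen phosphate (1.42 mg/mL) in water, pH ~7.4, was sterile-filtered and stored at 40 °C, sampled on days 7 and 26. After centrifugation, concentration and purity (target/total peak area) were measured by reversed-phase HPLC at 214 and 280 nm, water/0.05% TFA to acetonitrile gradient, 25 °C column.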

[4] = Heat accelerated stability assay for compatibility testing (M8 with M51); assay type: physicochemical; conditions: M8 1 mg/ml with M51 1 mg/ml, pH about 7.4, one-month heat accelerated assay, without and with excipients (phenol, 1,2-dihydroxypropane)
Method: The calcitonin analogue M8 (1 mg/ml), the GLP-1 receptor agonist M51 (1 mg/ml), and sodium dihydrogen phosphate (1.42 mg/ml) were mixed and dissolved in ultrapure water, and 5.5 mg/ml phenol and 14 mg/ml 1,2-dihydroxypropane were further added for the testing group with excipients. After pH was adjusted to about 7.4 with hydrochloric acid/sodium hydroxide, accelerated stability assays were performed according to the method of Example 3. […] Thus, they had the potential to be developed as a co-formulation.

[5] = Study of weight change and food consumption in rats; assay type: in vivo, SD (Sprague Dawley) rats; conditions: SD rats, subcutaneous, 10 nmol/kg; for Effect on reducing food intake: accumulated food intake recorded every 24 hours (FIGs. 7 and 9); for Effect on reducing body weight: recorded every 24 hours (FIGs. 6 and 8)
Source text: SD (Sprague Dawley) rats weighing 200-250 g were used for this study. The rats were received at least 10-14 days before the study began such that they could accommodate to the experimental environment. After arrival, they were exposed to a reversed light/dark cycle (i.e., lights switched off in daytime and on in nighttime) for two weeks and were individually housed for the first week so as to ensure high data accuracy and test sensitivity. Throughout the acclimation and experiment period, the rats had free access to food and water. 5-8 rats were assigned to each testing group for the derivatives and were subcutaneously administered the derivatives at a dose of 10 nmol/kg or a vehicle, and the dosing timepoint was recorded for each group. After dosing, the rats were put back into cages where they were housed and could have access to food and water. Food consumption and weight change of the rats were recorded online or manually every 24 hours.

| Structure (SMILES) | EC50 [2] [nM] | Changes in characteristics or properties, 0d [3] | Changes in characteristics or properties, 7d ([3]; 7d) | Characteristics or properties on Day 26 [3] | Reversed phase chromatography 26d change ([3]; Table 8, purity change, 26d) [%] | Concentration change on Day 26 as compared to Day 0 [3] | Change in the spectra of reversed phase chromatography (compatibility) [4] | half-life [1] | Reversed phase chromatography 7d change ([3]; Table 8, purity change, 7d) | Purity Change% (7d-0d) [3] | Effect on reducing food intake [5] | Effect on reducing body weight [5] | Concentration change (7d-0d)/% [3] |
| --- | --- | --- | --- | --- | --- | --- | --- | --- | --- | --- | --- | --- | --- |
| CC(C)C[C@H](NC(=O)[C@H](CCCCN)NC(=O)CNC(=O)[C@H](CC(C)C)NC(=O)[C@@H](NC(=O)[C@@H]1CSSC[C@H](N)C(=O)N[C@@H](CO)C(=O)N[C@@H](CC(N)=O)C(=O)N[C@@H](CC(C)C)C(=O)N[C@@H](CO)C(=O)N[C@@H]([C@@H](C)O)C(=O)N1)C(C)C)C(=O)N[C@@H](CO)C(=O)N[C@@H](CCC(N)=O)C(=O)N[C@@H](CCC(=O)O)C(=O)N[C@@H](CC(C)C)C(=O)N[C@@H](Cc1c[nH]cn1)C(=O)N[C@@H](CCCCN)C(=O)N[C@@H](CC(C)C)C(=O)N[C@@H](CCC(N)=O)C(=O)N[C@H](C(=O)N[C@@H](Cc1ccc(O)cc1)C(=O)N1CCC[C@H]1C(=O)N[C@@H](CCCNC(=N)N)C(=O)N[C@H](C(=O)N[C@@H](CC(N)=O)C(=O)N[C@H](C(=O)NCC(=O)N[C@@H](CO)C(=O)NCC(=O)N[C@H](C(=O)N1CCC[C@H]1C(N)=O)[C@@H](C)O)[C@@H](C)O)[C@@H](C)O)[C@@H](C)O [D2, salmon calcitonin] |  |  |  |  |  |  |  | less than two hours |  |  |  |  |  |
| CC(C)C[C@H](NC(=O)[C@H](CCCNC(=N)N)NC(=O)CNC(=O)[C@H](CC(C)C)NC(=O)[C@@H](NC(=O)[C@H](C)NC(=O)[C@@H](NC(=O)[C@H](CO)NC(=O)[C@H](CC(C)C)NC(=O)[C@H](CCC(N)=O)NC(=O)[C@H](CO)NC(=O)[C@H](C)NC(=O)CC[C@H](NC(=O)CCCCCCCCCCCCCCCCCCC(=O)O)C(=O)O)[C@@H](C)O)C(C)C)C(=O)N[C@@H](CO)C(=O)N[C@@H](CC(=O)O)C(=O)N[C@@H](CCC(=O)O)C(=O)N[C@@H](CC(C)C)C(=O)N[C@@H](Cc1c[nH]cn1)C(=O)N[C@@H](CCCNC(=N)N)C(=O)N[C@@H](CC(C)C)C(=O)N[C@@H](CCC(N)=O)C(=O)N[C@@H](CC(=O)O)C(=O)N[C@@H](Cc1ccc(O)cc1)C(=O)N1CCC[C@H]1C(=O)N[C@@H](CCCNC(=N)N)C(=O)N[C@H](C(=O)N[C@@H](CC(=O)O)C(=O)N[C@H](C(=O)NCC(=O)N[C@@H](CO)C(=O)NCC(=O)N[C@@H](CO)C(=O)N1CCC[C@H]1C(N)=O)C(C)C)[C@@H](C)O [M8] ({C20 diacid-γGlu}-ASQLSTAVLGRLSDELHRLQDYPRTDVGSGSP-NH2) | 0.017 | Clear | Clear | clear solution | -0.12 | less than 2% | only a little change |  | No change (a decrease of less than 1% from the initial value to the detected content is denoted as "no change") | No change (a decrease of less than 1% from the initial value to the detected content is denoted as "no change") | prominent effect | prominent effect |  |
| CC(C)C[C@H](NC(=O)[C@H](CCCNC(=N)N)NC(=O)CNC(=O)[C@H](CC(C)C)NC(=O)[C@@H](NC(=O)[C@H](C)NC(=O)[C@@H](NC(=O)[C@H](CO)NC(=O)[C@H](CC(C)C)NC(=O)[C@H](CCC(N)=O)NC(=O)[C@H](CO)NC(=O)[C@H](C)NC(=O)CC[C@H](NC(=O)CCCCCCCCCCCCCCCCCCC(=O)O)C(=O)O)[C@@H](C)O)C(C)C)C(=O)N[C@@H](CO)C(=O)N[C@@H](CCC(N)=O)C(=O)N[C@@H](CCC(=O)O)C(=O)N[C@@H](CC(C)C)C(=O)N[C@@H](Cc1c[nH]cn1)C(=O)N[C@@H](CCCNC(=N)N)C(=O)N[C@@H](CC(C)C)C(=O)N[C@@H](CCC(N)=O)C(=O)N[C@@H](CC(=O)O)C(=O)N[C@@H](Cc1ccc(O)cc1)C(=O)N1CCC[C@H]1C(=O)N[C@@H](CCCNC(=N)N)C(=O)N[C@H](C(=O)N[C@@H](CC(=O)O)C(=O)N[C@H](C(=O)NCC(=O)N[C@@H](C)C(=O)NCC(=O)N[C@@H](CO)C(=O)N1CCC[C@H]1C(N)=O)C(C)C)[C@@H](C)O [M19] ({C20 diacid-γGlu}-ASQLSTAVLGRLSQELHRLQDYPRTDVGAGSP-NH2) | 0.016 | Clear | Clear |  |  |  |  |  |  | No change (a decrease of less than 1% from the initial value to the detected content is denoted as "no change") | prominent effect | prominent effect | No change (a decrease of less than 1% from the initial value to the detected content is denoted as "no change") |

Further lines, with some results ahead:

| EC50 [2] [nM] | Changes in characteristics or properties, 0d [3] | Changes in characteristics or properties, 7d ([3]; 7d) | Characteristics or properties on Day 26 [3] | Reversed phase chromatography 26d change ([3]; Table 8, purity change, 26d) [%] | Concentration change on Day 26 as compared to Day 0 [3] | Change in the spectra of reversed phase chromatography (compatibility) [4] | Structure (SMILES) | half-life [1] | Reversed phase chromatography 7d change ([3]; Table 8, purity change, 7d) | Purity Change% (7d-0d) [3] | Effect on reducing food intake [5] | Effect on reducing body weight [5] | Concentration change (7d-0d)/% [3] |
| --- | --- | --- | --- | --- | --- | --- | --- | --- | --- | --- | --- | --- | --- |
| 0.017 | Clear | Clear | clear solution |  |  |  | CC(C)C[C@H](NC(=O)[C@H](CCCNC(=N)N)NC(=O)CNC(=O)[C@H](CC(C)C)NC(=O)[C@@H](NC(=O)[C@H](C)NC(=O)[C@@H](NC(=O)[C@H](CO)NC(=O)[C@H](CC(C)C)NC(=O)[C@H](CCC(N)=O)NC(=O)[C@H](CO)NC(=O)[C@H](C)NC(=O)CC[C@H](NC(=O)CCCCCCCCCCCCCCCCCCC(=O)O)C(=O)O)[C@@H](C)O)C(C)C)C(=O)N[C@@H](CO)C(=O)N[C@@H](CCC(=O)O)C(=O)N[C@@H](CCC(=O)O)C(=O)N[C@@H](CC(C)C)C(=O)N[C@@H](Cc1c[nH]cn1)C(=O)N[C@@H](CCCNC(=N)N)C(=O)N[C@@H](CC(C)C)C(=O)N[C@@H](CCC(N)=O)C(=O)N[C@@H](CC(=O)O)C(=O)N[C@@H](Cc1ccc(O)cc1)C(=O)N1CCC[C@H]1C(=O)N[C@@H](CCCNC(=N)N)C(=O)N[C@H](C(=O)N[C@@H](CC(=O)O)C(=O)N[C@H](C(=O)NCC(=O)N[C@@H](CO)C(=O)NCC(=O)N[C@@H](CO)C(=O)N1CCC[C@H]1C(N)=O)C(C)C)[C@@H](C)O [M9] ({C20 diacid-γGlu}-ASQLSTAVLGRLSEELHRLQDYPRTDVGSGSP-NH2) |  |  | No change (a decrease of less than 1% from the initial value to the detected content is denoted as "no change") | particularly effective | particularly effective | No change (a decrease of less than 1% from the initial value to the detected content is denoted as "no change") |
| 0.017 | Clear | Clear | clear solution |  | less than 2% |  | CC(C)C[C@H](NC(=O)[C@H](CCCNC(=N)N)NC(=O)CNC(=O)[C@H](CC(C)C)NC(=O)[C@@H](NC(=O)[C@H](C)NC(=O)[C@@H](NC(=O)[C@H](CO)NC(=O)[C@H](CC(C)C)NC(=O)[C@H](CCC(N)=O)NC(=O)[C@H](CO)NC(=O)[C@H](C)NC(=O)CC[C@H](NC(=O)CCCCCCCCCCCCCCCCCCC(=O)O)C(=O)O)[C@@H](C)O)C(C)C)C(=O)N[C@@H](CO)C(=O)N[C@@H](CCC(N)=O)C(=O)N[C@@H](CCC(=O)O)C(=O)N[C@@H](CC(C)C)C(=O)N[C@@H](Cc1c[nH]cn1)C(=O)N[C@@H](CCCNC(=N)N)C(=O)N[C@@H](CC(C)C)C(=O)N[C@@H](CCC(=O)O)C(=O)N[C@@H](CC(=O)O)C(=O)N[C@@H](Cc1ccc(O)cc1)C(=O)N1CCC[C@H]1C(=O)N[C@@H](CCCNC(=N)N)C(=O)N[C@H](C(=O)N[C@@H](CC(=O)O)C(=O)N[C@H](C(=O)NCC(=O)N[C@@H](CO)C(=O)NCC(=O)N[C@@H](CO)C(=O)N1CCC[C@H]1C(N)=O)C(C)C)[C@@H](C)O [M13] ({C20 diacid-γGlu}-ASQLSTAVLGRLSQELHRLEDYPRTDVGSGSP-NH2) |  |  | No change (a decrease of less than 1% from the initial value to the detected content is denoted as "no change") | particularly effective | particularly effective |  |

Reference: EP4692114A1, “CALCITONIN ANALOGUE, AND DERIVATIVE THEREOF AND USE THEREOF” (Hangzhou Sciwind Biosciences Co., Ltd., priority 2023, dated 2024)
